Where two headings read alike, the source gives them in different places.
Assays:
[1] = biological target: T1, human P2X2/3 (heteromeric P2X2/3 channels) (Homo sapiens, UniProt P56373+Q9UBL9); assay: FlexStation calcium fluorescence assay, heteromeric P2X2/3 channels in 1321N1 cells; assay type: cell-based; conditions: for P2X2/3 mean pIC50, R = OMe: Table 3B, Table 2
T1 construct: expressed in transfected cells; host or cells: 1321N1 human astrocytoma cells (1321N1-hP2X2/3)
T1 sequence (P56373 1-397): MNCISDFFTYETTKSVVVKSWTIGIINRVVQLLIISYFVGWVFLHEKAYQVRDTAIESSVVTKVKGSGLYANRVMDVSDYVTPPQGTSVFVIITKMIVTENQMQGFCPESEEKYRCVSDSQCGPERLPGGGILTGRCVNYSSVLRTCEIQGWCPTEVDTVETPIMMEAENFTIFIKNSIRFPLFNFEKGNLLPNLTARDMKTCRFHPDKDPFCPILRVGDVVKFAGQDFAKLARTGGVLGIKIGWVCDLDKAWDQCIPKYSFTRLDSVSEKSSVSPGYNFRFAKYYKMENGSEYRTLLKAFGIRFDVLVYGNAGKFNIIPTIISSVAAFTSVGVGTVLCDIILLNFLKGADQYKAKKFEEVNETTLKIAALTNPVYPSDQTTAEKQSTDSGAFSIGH
T1 sequence (Q9UBL9 1-471): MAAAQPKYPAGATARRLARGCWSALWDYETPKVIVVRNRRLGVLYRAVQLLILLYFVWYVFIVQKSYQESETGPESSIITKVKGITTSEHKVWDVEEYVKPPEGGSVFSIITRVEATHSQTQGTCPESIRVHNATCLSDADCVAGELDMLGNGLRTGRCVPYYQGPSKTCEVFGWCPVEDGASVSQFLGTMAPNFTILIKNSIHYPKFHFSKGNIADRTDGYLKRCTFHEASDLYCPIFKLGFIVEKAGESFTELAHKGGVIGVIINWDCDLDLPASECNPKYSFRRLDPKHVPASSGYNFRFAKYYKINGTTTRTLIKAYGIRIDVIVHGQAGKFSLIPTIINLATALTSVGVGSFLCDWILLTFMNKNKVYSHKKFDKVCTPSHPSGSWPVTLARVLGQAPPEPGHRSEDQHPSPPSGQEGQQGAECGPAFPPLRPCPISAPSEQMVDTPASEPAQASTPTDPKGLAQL
Description: (§1) 1321N1 human astrocytoma and HEK293 human embryonic kidney cells were stably transfected with human P2X2 and P2X3 receptor subunits to form heteromeric P2X2/3 channels and passaged in flasks. Additionally, HEK293 cells were stably transfected with human P2X3 receptor subunits to form homomeric P2X3 channels.
(§2) Approximately 24 hours before the FlexStation calcium fluorescence experiment, cells were released from their flasks, centrifuged and re-suspended in nutrient medium. The cells were aliquoted into black-wall, clear-bottom 96 well plates at a density of 25,000 cells per well and incubated overnight in a humidified, CO2-enriched (5%) atmosphere at 37° C.
(§3) On the day of the experiment, cells were washed with assay buffer (calcium- and magnesium-free Hank's balanced salt solution, 20 mM HEPES, 2 mM CaCl2; AB) and loaded with 4 μM Fluo-4 (P2X2/3) or Calcium 6 (Molecular Devices, according to manufacturer's instructions; P2X3) calcium-sensitive fluorescent dye in 100 μL AB.
(§4) After 1 hour of dye loading at 37° C., 1321N1-hP2X2/3 cells were washed two times with AB and test compound or vehicle added to each well in a total volume of 150 μL AB. HEK-hP2X3 cells were not washed because the Calcium 6 dye kit includes an extracellular dye that quenches unabsorbed Calcium 6 dye; test compound or vehicle were added directly to the assay plates to achieve the appropriate concentration of test compound in a total volume of 150 μL AB.
(§5) After 20 minutes incubation at room temperature and protected from light, the assay plates were loaded into the FlexStation microplate reader and baseline fluorescence measured with an excitation wavelength of 485 nm and emission wavelength readings centered at 525 nm (515 nm cut off).
(§6) The agonist was dispensed by the FlexStation during fluorescence measurement to construct agonist activation and antagonist inhibition curves. The final agonist concentration for inhibition was 1 μM α,β-meATP for P2X3 and 3 μM ATP for P2X2/3. Peak fluorescence was measured and curves generated using a four parameter nonlinear regression equation.

[2] = biological target: T2, human P2X3 receptor (homomeric P2X3 channels) (Homo sapiens, UniProt P56373); assay: FlexStation calcium fluorescence assay, homomeric P2X3 channels in HEK293 cells; assay type: cell-based; conditions: for Selectivity P2X3/P2X2/3: Ratio=10^(P2X3pIC50−P2X2/3pIC50); for Selectivity, R = OMe / P2X3 mean pIC50, R = OMe: Table 3B; for P2X3 mean pIC50, R = OMe: Table 2
T2 construct: expressed in transfected cells; host or cells: HEK293 human embryonic kidney cells (HEK-hP2X3)
T2 sequence (P56373 1-397): T1 sequence (P56373 1-397)
Description: as §1, §2, §3, §4, §5, §6

[3] = 1321N1 cells, hP2X2/3, agonist 3 μM ATP, highest concentration tested is 10 μM, read-out: Average pIC50 P2X2/3 (converted)
[4] = Table 3A, sulfur-linked, hP2X2/3, 1321N1 (astrocytoma) cells, highest concentration tested is 10 μM
[5] = HEK293 cells, hP2X3, agonist 1 μM α,β-meATP, read-out: Average pIC50 P2X3 (converted)
[6] = Table 3A, sulfur-linked, hP2X3, HEK293 cells
[7] = hP2X2/3, 1321N1 (astrocytoma) cells

| Compound | IC50 [1, 3] [nM] | IC50 [2, 5] [nM] | Selectivity P2X3/P2X2/3 [2] | also measured |
| --- | --- | --- | --- | --- |
| COc1cc(Sc2cnc(N)nc2N)c(C(C)C)cc1OC [Compound 1] | – | – | – | Average pIC50 P2X2/3 ([1]; 1321N1 cells, hP2X2/3, agonist 3 μM ATP, highest concentration tested is 10 μM): <5; P2X2/3 mean pIC50, X = S ([1]; Table 3A, sulfur-linked, hP2X2/3, 1321N1 (astrocytoma) cells, highest concentration tested is 10 μM, listed as Row A, X = S): <5; IC50 ([1]; Table 3A, sulfur-linked, hP2X2/3, 1321N1 (astrocytoma) cells, highest concentration tested is 10 μM, read-out: P2X2/3 mean pIC50, X = S (converted)): > 10000 nM; Average pIC50 P2X3 ([2]; HEK293 cells, hP2X3, agonist 1 μM α,β-meATP): 7.0; P2X3 mean pIC50, X = S ([2]; Table 3A, sulfur-linked, hP2X3, HEK293 cells, listed as Row A, X = S): 7.0; IC50 ([2]; Table 3A, sulfur-linked, hP2X3, HEK293 cells, read-out: P2X3 mean pIC50, X = S (converted)): 100 nM |
| COc1cc(C(C)C)c(Sc2cnc(N)nc2N)cc1S(C)(=O)=O [Compound 2] | > 10000 | 501 | – | P2X2/3 mean pIC50, X = S [1, 4]: <5; P2X3 mean pIC50, X = S [2, 6]: 6.3 |
| COc1cc(C(C)C)c(Sc2cnc(N)nc2N)cc1S(N)(=O)=O [Compound 3] | > 10000 | 158 | – | – |
| COc1cc(C(C)C)c(Sc2cnc(N)nc2N)cc1I [Compound 4] | 6310 | 126 | – | P2X2/3 mean pIC50, X = S [1, 4]: 5.2; Selectivity, X = S ([2]; Table 3A, sulfur-linked, P2X3 vs P2X2/3 potency ratio): 48 |
| C#Cc1cc(Sc2cnc(N)nc2N)c(C(C)C)cc1OC [Compound 5] | 3980 | 39.8 | – | – |
| CC#Cc1cc(Sc2cnc(N)nc2N)c(C(C)C)cc1OC [Compound 6] | > 10000 | 794 | – | – |
| COc1cc(C(C)C)c(Sc2cnc(N)nc2N)cc1C [Compound 7] | > 10000 | 316 | – | – |
| COc1cc(C(C)C)c(Sc2cnc(N)nc2N)cc1Br [Compound 8] | > 10000 | 200 | – | – |
| COc1cc(C(C)C)c(Sc2cnc(N)nc2N)cc1Cl [Compound 9] | > 10000 | 158 | – | P2X2/3 mean pIC50, X = S [1, 4]: <5; P2X3 mean pIC50, X = S [2, 6]: 6.8 |
| COc1cc(Oc2cnc(N)nc2N)c(C(C)C)nc1OC [Compound 13] | 200 | 39.8 | – | – |
| COc1nc(C(C)C)c(Oc2cnc(N)nc2N)cc1I [Compound 15] | 398 | 63.1 | 6.5 | – |
| COc1nc(C(C)C)c(Oc2cnc(N)nc2N)cc1S(C)(=O)=O [Compound 16] | > 10000 | 63.1 | – | – |
| COc1nc(C(C)C)c(Oc2cnc(N)nc2N)cc1C#N [Compound 17] | > 10000 | 1000 | – | – |
| COc1nc(C(C)C)c(Oc2cnc(N)nc2N)cc1C(F)(F)F [Compound 18] | 1580 | 63.1 | – | – |
| COc1cc(Oc2cnc(NC(CCO)CCO)nc2N)c(C(C)C)cc1OC [Compound 21] | 398 | 79.4 | 5.0 | – |
| COc1cc(Oc2cnc(NCCO)nc2N)c(C(C)C)cc1OC [Compound 22] | 1580 | 200 | 7.9 | P2X2/3 mean pIC50, R = OMe [1, 7]: 5.8; Selectivity, R = OMe ([2]; P2X3 vs P2X2/3 potency ratio): 7.9; P2X3 mean pIC50, R = OMe ([2]; hP2X3, HEK293 cells): 6.7 |
| COCCOCCNc1ncc(Oc2cc(OC)c(OC)cc2C(C)C)c(N)n1 [Compound 24] | > 10000 | 1580 | >5.9 | – |
| COc1cc(Oc2cnc(NCC(C)C)nc2N)c(C(C)C)cc1OC [Compound 25] | 2510 | 631 | 4.3 | – |
| COc1cc(Oc2cnc(NC3CC3)nc2N)c(C(C)C)cc1OC [Compound 26] | 3160 | 631 | 5.4 | – |
| COc1cc(Oc2cnc(NC3CCC3)nc2N)c(C(C)C)cc1OC [Compound 27] | 501 | 200 | 2.5 | – |
| COc1cc(Oc2cnc(NC3CCOCC3)nc2N)c(C(C)C)cc1OC [Compound 28] | 1260 | 398 | 3.2 | – |
| CCNc1ncc(Oc2cc(OC)c(OC)cc2C(C)C)c(N)n1 [Compound 29] | 3160 | 398 | 9.3 | – |
| COc1cc(Oc2cnc(NCC(O)CO)nc2N)c(C(C)C)cc1OC (stereo not drawn) [Compound 31] | 3980 | 200 | 21 | P2X2/3 mean pIC50, R = OMe [1, 7]: 5.4; Selectivity, R = OMe ([2]; P2X3 vs P2X2/3 potency ratio): 20; P2X3 mean pIC50, R = OMe ([2]; hP2X3, HEK293 cells): 6.7 |

More lines, main results first:

| IC50 [1, 3] [nM] | IC50 [2, 5] [nM] | Selectivity P2X3/P2X2/3 [2] | Compound | also measured |
| --- | --- | --- | --- | --- |
| > 10000 | > 10000 | – | COc1cc(C(C)C)c(Sc2cnc(N)nc2N)cc1C#N [Compound 10] | – |
| > 10000 | 158 | – | COc1cc(C(C)C)c(Sc2cnc(N)nc2N)cc1-c1nnn[nH]1 [Compound 11] | – |
| > 10000 | 5010 | – | COc1cc(C(C)C)c(Sc2cnc(N)nc2N)cc1C(=O)O [Compound 12] | – |
| > 10000 | 1260 | – | COc1ccc(Oc2cnc(N)nc2N)c(C(C)C)n1 [Compound 14] | – |
| 200 | 6.31 | – | C#Cc1cc(Oc2cnc(N)nc2N)c(C(C)C)nc1OC [Compound 19] | – |
| 398 | 20 | – | COc1nc(C(C)C)c(Oc2cnc(N)nc2N)cc1S(N)(=O)=O [Compound 20] | – |
| > 10000 | 1000 | >10.5 | COc1cc(Oc2cnc(NC(C)(C)C)nc2N)c(C(C)C)cc1OC [Compound 23] | – |
| 631 | 126 | 4.9 | COc1cc(Oc2cnc(NC(CO)CO)nc2N)c(C(C)C)cc1OC [Compound 30] | P2X2/3 mean pIC50, R = OMe [1, 7]: 6.2; Selectivity, R = OMe ([2]; P2X3 vs P2X2/3 potency ratio): 5.0; P2X3 mean pIC50, R = OMe ([2]; hP2X3, HEK293 cells): 6.9 |

Source: patent US10822311B2, “Pyrimidines and variants thereof, and uses therefor” (Afferent Pharmaceuticals Inc., priority 2016, dated 2020)
